molecular target: T1, human recombinant his-tagged HSP90α (Homo sapiens, UniProt P07900); assay: HSP90 enzyme assay (HTRF, competition with biotinylated Geldanamycin); assay type: binding; conditions: IC50 range; read-out: Enzyme Assay
T1 construct: purchased Prospec Technogene #HSP90
Excerpt: An HTRF (homogeneous time resolved fluorescence) assay is used to measure the interaction of the compounds with HSP90. The assay measures binding of biotinylated Geldanamycin (bio-GM; Biomol, #EI-341, lot: A9199a) to human recombinant his-tagged HSP90α (HSP90; Prospec Technogene, #HSP90, lot: 260HSP9001). A signal is generated by fluorescence resonance energy transfer from an Europium-cryptate labeled anti-his antibody (anti-his-K; Cisbio International, #61HISKLA, lot: 33V) via the HSP90-GM-biotin complex to a fluorescence acceptor (allophycocyanin) linked to streptavidin (SA-XL; Cisbio International, #610SAXLB, lot: 089).
Unlabeled GM or compounds compete with the bio-GM for binding to HSP90 resulting in reduced fluorescence energy transfer/assay signal.
A preformed (1 hour incubation) complex of HSP90 with the anti-his-K is added to the compound solution in a 384 well microplate (Corning, #3710) and incubated for 15 minutes. A preformed (1 hour incubation) complex of bio-GM with the SA-XL is added to the wells and incubated for 20 hours. All incubations are performed at room temperature. The final assay volume is 50 μl/well. The final concentrations in the assay are: 50 mM Hepes pH 7.3, 50 mM NaCl, 100 mM KF, 1 mM EDTA, 1 mM DTT, 0.1% Triton-X-100, […] HSP90, 40 nM SA-XL, 40 nM bio-GM. Test compounds are dissolved in DMSO, prediluted in assay buffer and tested at a final concentration between 5000 nM and 0.3 nM. The resulting DMSO concentration is 0.5% and included in all controls. High controls are without test compounds, low controls without test compounds, without HSP90 and without bio-GM. As a reference inhibitor unlabeled GM is used in the same concentrations as the test compounds.
Inhibition is calculated compared to the assay controls using an Excel spreadsheet (Microsoft). IC50 values are calculated by non-linear least squares fitting to the standard dose-response model using GraphPad Prism (GraphPad Software Inc).

| IC50 [nM] | Compound |
| --- | --- |
| < 100 | CC(C)c1cc(C(=O)N2CCC(CCN[C@H](C(=O)OC3CCCC3)c3ccccc3)CC2)c(O)cc1O [Example 51, cyclopentyl (2S)-{[2-(1-{[2,4-dihydroxy-5-(propan-2-yl)phenyl]carbonyl}piperidin-4-yl)ethyl]amino}(phenyl)ethanoate] |
| < 100 | CC(C)c1cc(C(=O)N2CCC(CN[C@@H](C)C(=O)OC(C)(C)C)CC2)c(O)cc1O [Example 26, tert-butyl N-[(1-{[2,4-dihydroxy-5-(propan-2-yl)phenyl]carbonyl}piperidin-4-yl)methyl]-L-alaninate] |
| < 100 | CC(C)c1cc(C(=O)N2Cc3ccc(CCNC4(C(=O)O)CCCC4)cc3C2)c(O)cc1O [Example 93, 1-{[2-(2-{[2,4-dihydroxy-5-(propan-2-yl)phenyl]carbonyl}-2,3-dihydro-1H-isoindol-5-yl)ethyl]amino}cyclopentanecarboxylic acid] |
| < 100 | CC(C)c1cc(C(=O)N2Cc3ccc(CNC4(C(=O)O)CCCC4)cc3C2)c(O)cc1O [Example 83, 1-{[(2-{[2,4-dihydroxy-5-(propan-2-yl)phenyl]carbonyl}-2,3-dihydro-1H-isoindol-5-yl)methyl]amino}cyclopentanecarboxylic acid] |
| < 100 | CC(C)c1cc(C(=O)N2CCC(N[C@@H](CC3CCCCC3)C(=O)O)CC2)c(O)cc1O [Example 110, 3-cyclohexyl-N-(1-{[2,4-dihydroxy-5-(propan-2-yl)phenyl]carbonyl}piperidin-4-yl)-L-alanine] |
| < 100 | CC(C)C[C@H](NCCC1CCN(C(=O)c2cc(C(C)C)c(O)cc2O)CC1)C(=O)O [Example 104, N-[2-(1-{[2,4-dihydroxy-5-(propan-2-yl)phenyl]carbonyl}piperidin-4-yl)ethyl]-L-leucine] |
| < 100 | N-[2-(1-{[2,4-dihydroxy-5-(propan-2-yl)phenyl]carbonyl}piperidin-4-yl)ethyl]-2-methylalanine [Example 114] |
| < 100 | CC(C)c1cc(C(=O)N2CCC(N[C@H](C(=O)O)C3CCCCC3)CC2)c(O)cc1O [Example 113] |
| < 100 | CC(C)C[C@H](NC1CCN(C(=O)c2cc(C(C)C)c(O)cc2O)CC1)C(=O)O [Example 96, N-(1-{[2,4-dihydroxy-5-(propan-2-yl)phenyl]carbonyl}piperidin-4-yl)-L-leucine] |
| < 100 | CC(C)c1cc(C(=O)N2CCC(CCN[C@H](C(=O)O)C(C)C)CC2)c(O)cc1O [Example 121, N-[2-(1-{[2,4-dihydroxy-5-(propan-2-yl)phenyl]carbonyl}piperidin-4-yl)ethyl]-L-valine] |
| < 100 | CC(C)C[C@H](NCc1ccc2c(c1)CN(C(=O)c1cc(C(C)C)c(O)cc1O)C2)C(=O)O [Example 78, N-[(2-{[2,4-dihydroxy-5-(propan-2-yl)phenyl]carbonyl}-2,3-dihydro-1H-isoindol-5-yl)methyl]-L-leucine] |
| 100 to 1000 | CC(C)c1cc(C(=O)N2CCC(N[C@H](C(=O)OC(C)(C)C)C3CCCCC3)CC2)c(O)cc1O [Example 15, tert-butyl (2S)-cyclohexyl[(1-{[2,4-dihydroxy-5-(propan-2-yl)phenyl]carbonyl}piperidin-4-yl)amino]ethanoate] |
| < 100 | CC(C)c1cc(C(=O)N(C)Cc2ccc(CN[C@H](C(=O)O)c3ccccc3)cc2)c(O)cc1O [Example 85, (2S)-[(4-{[{[2,4-dihydroxy-5-(propan-2-yl)phenyl]carbonyl}(methyl)amino]methyl}benzyl)amino](phenyl)ethanoic acid] |
| < 100 | CC(C)OC(=O)[C@H](C)NCc1ccc2c(c1)CN(C(=O)c1cc(C(C)C)c(O)cc1O)C2 [Example 58, propan-2-yl N-[(2-{[2,4-dihydroxy-5-(propan-2-yl)phenyl]carbonyl}-2,3-dihydro-1H-isoindol-5-yl)methyl]-L-alaninate] |
| < 100 | CC(C)c1cc(C(=O)N2CCC(CCN[C@@H](Cc3ccccc3)C(=O)O)CC2)c(O)cc1O [Example 111, N-[2-(1-{[2,4-dihydroxy-5-(propan-2-yl)phenyl]carbonyl}piperidin-4-yl)ethyl]-L-phenylalanine] |
| < 100 | CC(C)C[C@H](NCc1ccc(CN(C)C(=O)c2cc(C(C)C)c(O)cc2O)cc1)C(=O)O [Example 77, N-(4-{[{[2,4-dihydroxy-5-(propan-2-yl)phenyl]carbonyl}(methyl)amino]methyl}benzyl)-L-leucine] |
| < 100 | CC(C)c1cc(C(=O)N2CCC(N[C@H](C(=O)O)c3ccccc3)CC2)c(O)cc1O [Example 99, (2S)-[(1-{[2,4-dihydroxy-5-(propan-2-yl)phenyl]carbonyl}piperidin-4-yl)amino](phenyl)ethanoic acid] |
| < 100 | CC(C)c1cc(C(=O)N2CCC(N[C@@H](C)C(=O)O)CC2)c(O)cc1O [Example 100, N-(1-{[2,4-dihydroxy-5-(propan-2-yl)phenyl]carbonyl}piperidin-4-yl)-L-alanine] |
| < 100 | CC(C)c1cc(C(=O)N2CCC(CCN[C@@H](C)C(=O)OC(C)(C)C)CC2)c(O)cc1O [Example 43, tert-butyl N-[2-(1-{[2,4-dihydroxy-5-(propan-2-yl)phenyl]carbonyl}piperidin-4-yl)ethyl]-L-alaninate] |
| < 100 | CC(C)c1cc(C(=O)N2Cc3ccc(CNC(C)(C)C(=O)O)cc3C2)c(O)cc1O [Example 79, N-[(2-{[2,4-dihydroxy-5-(propan-2-yl)phenyl]carbonyl}-2,3-dihydro-1H-isoindol-5-yl)methyl]-2-methylalanine] |
| < 100 | CC(C)C[C@H](NCCc1ccc2c(c1)CN(C(=O)c1cc(C(C)C)c(O)cc1O)C2)C(=O)O [Example 81, N-[2-(2-{[2,4-dihydroxy-5-(propan-2-yl)phenyl]carbonyl}-2,3-dihydro-1H-isoindol-5-yl)ethyl]-L-leucine] |
| < 100 | CC(C)c1cc(C(=O)N(C)Cc2cccc(CN[C@H](C(=O)O)c3ccccc3)c2)c(O)cc1O [Example 89, (2S)-[(3-{[{[2,4-dihydroxy-5-(propan-2-yl)phenyl]carbonyl}(methyl)amino]methyl}benzyl)amino](phenyl)ethanoic acid] |
| < 100 | CC(C)C[C@H](NCc1cccc(CN(C)C(=O)c2cc(C(C)C)c(O)cc2O)c1)C(=O)O [Example 84, N-(3-{[{[2,4-dihydroxy-5-(propan-2-yl)phenyl]carbonyl}(methyl)amino]methyl}benzyl)-L-leucine] |
| < 100 | CC(C)c1cc(C(=O)N2CCC(CNC(C)(C)C(=O)O)CC2)c(O)cc1O [Example 117, N-[(1-{[2,4-dihydroxy-5-(propan-2-yl)phenyl]carbonyl}piperidin-4-yl)methyl]-2-methylalanine] |
| < 100 | CC(C)c1cc(C(=O)N2CCC(CN[C@@H](CO)C(=O)O)CC2)c(O)cc1O [Example 118, N-[(1-{[2,4-dihydroxy-5-(propan-2-yl)phenyl]carbonyl}piperidin-4-yl)methyl]-L-serine] |
| < 100 | CC(C)c1cc(C(=O)N2CCC(CN[C@@H](C)C(=O)O)CC2)c(O)cc1O [Example 106, N-[(1-{[2,4-dihydroxy-5-(propan-2-yl)phenyl]carbonyl}piperidin-4-yl)methyl]-L-alanine] |
| < 100 | CC(C)c1cc(C(=O)N2CCC(CN[C@H](C(=O)O)C3CCCCC3)CC2)c(O)cc1O [Example 116, (2S)-cyclohexyl{[(1-{[2,4-dihydroxy-5-(propan-2-yl)phenyl]carbonyl}piperidin-4-yl)methyl]amino}ethanoic acid] |
| < 100 | CC(C)c1cc(C(=O)N2CCC(CCN[C@@H](COC(C)(C)C)C(=O)OC(C)(C)C)CC2)c(O)cc1O [Example 53, tert-butyl O-tert-butyl-N-[2-(1-{[2,4-dihydroxy-5-(propan-2-yl)phenyl]carbonyl}piperidin-4-yl)ethyl]-L-serinate] |
| < 100 | CCCC[C@H](NC1CCN(C(=O)c2cc(C(C)C)c(O)cc2O)CC1)C(=O)O [Example 105, N-(1-{[2,4-dihydroxy-5-(propan-2-yl)phenyl]carbonyl}piperidin-4-yl)-L-norleucine] |

| Compound | IC50 [nM] |
| --- | --- |
| tert-butyl N-[2-(1-{[2,4-dihydroxy-5-(propan-2-yl)phenyl]carbonyl}piperidin-4-yl)ethyl]-L-serinate [Example 52] | < 100 |

test system: TNFα release from LPS stimulated THP-1 (hCE-1 +ve) cells; assay: LPS-stimulation of THP-1 cells (TNF-α release); assay type: cell-based, human; conditions: Homo sapiens, THP-1; IC50 range; TNF-α after LPS 1 μg/ml, 6 hours; read-out: THP-1 Assay
Procedure: THP-1 cells are plated in […] at a density of 4×10^4 cells/well in V-bottomed 96 well tissue culture treated plates and incubated at 37° C. in 5% CO2 for 16 hours. 2 Hours after the addition of the inhibitor in 100 μl of tissue culture media, the cells are stimulated with LPS (E. Coli strain 005:B5, Sigma) at a final concentration of 1 μg/ml and incubated at 37° C. in 5% CO2 for 6 hours. TNF-α levels are measured from cell-free supernatants by sandwich ELISA (R&D Systems #QTA00B).

| IC50 [nM] | Compound |
| --- | --- |
| 100 to 1000 | CC(C)c1cc(C(=O)N2CCC(CCN[C@H](C(=O)OC3CCCC3)c3ccccc3)CC2)c(O)cc1O [Example 51, cyclopentyl (2S)-{[2-(1-{[2,4-dihydroxy-5-(propan-2-yl)phenyl]carbonyl}piperidin-4-yl)ethyl]amino}(phenyl)ethanoate] |
| > 1000 | CC(C)c1cc(C(=O)N2CCC(CN[C@@H](C)C(=O)OC(C)(C)C)CC2)c(O)cc1O [Example 26, tert-butyl N-[(1-{[2,4-dihydroxy-5-(propan-2-yl)phenyl]carbonyl}piperidin-4-yl)methyl]-L-alaninate] |
